Source: PubChem BioAssay (NCI)
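Results reflect a 48-hour exposure of cells in 96-well plates to compound at five concentrations. GI50: concentration for 50% inhibition of growth. TGI marks complete inhibition of growth.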

Legend:
Experiment in all cases: growth of human tumour cells (NCI), 48 h
786-0 renal = tested on: 786-0 renal
ACHN renal = tested on: ACHN renal
DU-145 prostate = tested on: DU-145 prostate
HL-60(TB) leukemia = tested on: HL-60(TB) leukemia
KM12 colon = tested on: KM12 colon
MCF7 breast = tested on: MCF7 breast
RPMI-8226 leukemia = tested on: RPMI-8226 leukemia
SF-268 CNS = tested on: SF-268 CNS
SK-MEL-28 melanoma = tested on: SK-MEL-28 melanoma
SR leukemia = tested on: SR leukemia

Row | SMILES | GI50 (786-0 renal) [µM] | TGI (786-0 renal) [µM] | GI50 (ACHN renal) [µM] | TGI (ACHN renal) [µM] | GI50 (DU-145 prostate) [µM] | TGI (DU-145 prostate) [µM] | GI50 (HL-60(TB) leukemia) [µM] | TGI (HL-60(TB) leukemia) [µM] | GI50 (KM12 colon) [µM] | TGI (KM12 colon) [µM] | GI50 (MCF7 breast) [µM] | TGI (MCF7 breast) [µM] | GI50 (RPMI-8226 leukemia) [µM] | TGI (RPMI-8226 leukemia) [µM] | GI50 (SF-268 CNS) [µM] | TGI (SF-268 CNS) [µM] | GI50 (SK-MEL-28 melanoma) [µM] | TGI (SK-MEL-28 melanoma) [µM] | GI50 (SR leukemia) [µM] | TGI (SR leukemia) [µM]
1 | Nc1c(C(=O)Nc2ccccn2)sc2nc3c(cc12)CCCCCC3 | 0.776 | 6.24 | 2.41 | 10.9 | 1.18 | 5.77 | 0.14 | 1.43 | 0.511 | > 50 | 0.179 | 10.2 | 0.915 | 30 | 2.48 | 22.6 | 1.63 | 19.6 | 0.197 | > 50
2 | CN1CC[C@]23c4c5ccc(O)c4OC2c2[nH]ncc2C[C@H]3[C@H]1C5 (some centres undefined) |  | > 100 |  | > 100 |  | > 100 |  | > 100 |  | > 100 |  | > 100 |  | > 100 |  | > 100 |  | > 100 |  | > 100
3 | Cc1nn2c(-c3nc4cc(Cl)c(Cl)cc4[nH]3)c(-c3ccc(F)cc3)nc2s1 | 1.75 | 3.33 | 1.7 | 5.25 | 5.19 | > 100 | > 100 | > 100 |  |  | 13.6 | > 100 | 2.44 | > 100 | 3.15 | > 52.8 | 7.4 | > 100 | 42.9 | > 100
4 | Cc1cc(-c2ccco2)cc(C)c1/C=C/c1cncc(-c2nn[nH]n2)c1 | > 25 | > 25 | > 25 | > 25 | > 25 | > 25 | > 25 | > 25 | > 25 | > 25 | > 25 | > 25 | > 25 | > 25 | > 25 | > 25 | > 25 | > 25 | > 25 | > 25
5 | CCN(CC)C(=O)CCCCCn1c2ccccc2c2c3c(c4c5ccccc5[nH]c4c21)C(=O)N(O)C3=O | 2.12 | 5.04 |  |  | 6.5 | > 100 | 2.8 | 7.63 | 3.31 | 14.7 | 2.94 | > 100 | 3.06 | 11.3 | 3.97 | > 100 | 5.38 | > 100 | 1.56 | 13.6
6 | Oc1ccc(-c2[nH]c3ccccc3c2-c2nc3ccccc3o2)cc1 | 4.4 | 15.2 | 3.58 | 14.9 | 5.69 | 18.3 | 12.1 | 49.5 | 2.05 | 6.95 | 2.83 | 10.5 | 14.3 | 52.3 | 2.89 | 12.9 | 4.83 | 17.9 | 4.78 | 25.7
7 | CC(C)c1cc(C(C)C)c(Cl)c(Cl)c1O (tested in a mixture with another compound) |  | > 100 |  | 57.6 |  | > 100 |  | 36 |  | 58.1 |  | 54.6 |  | > 100 |  | 42.4 |  | 42.4 |  | 63.4
8 | Cc1ccccc1CNc1c2ccccc2nc2ccccc12 | 2.54 | 7.47 | 1.65 | 3.66 | 2.91 | 10.1 | 2.17 | 5.06 | 2.95 | 10.1 | 1.84 | 4.78 | 1.52 | 4.56 | 2.67 | 9.33 | 2.15 | 5.02 | 1.72 | 5.87
9 | COc1cc2c(cc1OC)C(SC)C(=O)N(Cc1cccc(OC)c1OC)CC2 (centres undefined) |  | > 100 |  | > 81.6 |  | > 23 |  | 5.63 |  | 40.3 |  | > 42.6 |  | 47.5 |  | > 100 |  | > 42.3 |  | 24.1
10 | Cc1ccc(-c2nc(C(Cl)Cl)nc3cc(C)nn23)cc1 | > 100 | > 100 | 0.783 | 3.6 | 0.432 | 2.81 | 1.33 | 5.46 |  |  | 1.97 | > 100 | 5.02 | > 100 | 2.69 | > 100 |  |  | 0.342 | > 100
11 | CN(C)CCS(=O)(=O)Nc1cc(-c2ccc3ncnc(Nc4ccc(F)c(Cl)c4)c3c2)cnc1Cl | 1.34 | > 100 | 0.392 | > 100 | 0.566 | > 37.3 | 1.33 | 9.15 | 1.46 | 4.25 | 0.292 | > 100 | 1.04 | 4.52 | 0.549 | > 100 |  |  | 0.809 | 
